Assay results taken from patent publication US7488476B2, “B-cell epitope peptides of HSP 65, DNA encoding said peptides, antibodies directed against said peptides and the different uses thereof in the treatment of inflammatory and autoimmune diseases” (priority 1998, dated 2009).

Assays:
rat immunoglobulins = assay: ELISA: antibodies of rat sera to Mycobacterial HSP 65 and its peptides; assay type: binding
Lewis rats [1] = assay: Anti HSP antibodies in Lewis rats immunized with HSP peptides (ELISA); assay type: in vivo, rat; conditions: 100 μg peptide in PBS, 3 times IP
Protocol: ELISA: Flat-bottomed 96 well plates (Corning) were coated with mammalian HSP 60 or Mycobacterial HSP 65 (10 μg/ml) in carbonate buffer pH 9.6 overnight at 4° C.
HSP peptides were attached to plates pre-treated with glutaraldehyde according to Kasprzyk et al.. Shortly, plates were coated with 100 μl/well of 5% w/v of glutaraldehyde in PBS for 1 hour at room temp. Plates were washed thoroughly with PBS and peptides (1 μg/100 μl) were added to each well, incubated overnight at 4° C. Plates were shaken dry and blocked with BSA 1% in PBS.
Plates coated with either HSP or peptides were washed again and incubated with rat sera diluted 1:100 with PBS-Tween 0.01% for 90 min. at room temp. After re-washing the plates were incubated with Goat anti rat IgG or IgM conjugated to alkaline-phosphatase for 60 min. at room temp. […] Optical density was measured photometrically at 405 nm.
Modulation of AA by mycobacterial and mammalian HSP peltides: HSP 65 derived peptides were tested for their ability to modulate the appearance or severity of AA in Lewis rats. Rats were immunized with 100 μg of each peptide in PBS, three weeks (3W), 2W and 1W before induction of AA by MT. Control rats received PBS. Rats were bled for testing antibody presence before injection of MT and 30 days post MT injection.
To test whether active immunization with bacterial or mammalian HSP peptides that are recognized by protective immunoglobulins can induce protection against AA, Lewis rats were immunized with the mycobacterial peptides 6, 7, 21, 31, 36, 45, 84, that bound antibodies from resistant Lewis rats (“protective” peptides), with some non-reactive mycobacterial HSP 65 peptides: peptide 26 (residues 151-166), 28 (residues 163-178) or peptide 70 (residues 415-430), and with the mammalian peptide 5.
Rats were injected 3 times intraperitoneally (IP), with one week intervals between injections before induction of AA with MT.

Lewis rats [2] = assay: Modulation of Adjuvant Arthritis by pre-immunization with HSP peptides; assay type: in vivo, rat; conditions: 3 IP injections at one week intervals before AA induction with MT, FIG. 4
NOD mice = assay: Peptide 6 immunization of NOD mice: onset of diabetes and antibodies by ELISA; assay type: in vivo, mouse
Protocol: Naive NOD mice were immunized 3 times intradermally (I.D.) with 100 μg peptide 6 (SEQ ID: No. 2) in CFA and IFA. Control mice received PBS. Mice were monitored for the onset of diabetes by glucose test and for anti-peptide 6 or anti-HSP 65 antibodies by ELISA. Mice immunized with the peptide developed anti-peptide 6 as well as anti-HSP 65 antibodies as detected by OD (1.52±0.07 and 1.43±0.13 respectively) in comparison to CFA immunized mice (0.05±0.01 and 0.01±0.01) and control mice (0.09±0.06 and 0.16±0.16).
To test whether active immunization with the bacterial HSP peptide 6 (SEQ ID: No. 2) can induce protective immunoglobulins against other autoimmune disorders, for instance autoimmune diabetes, NOD mice were immunized with the mycobacterial peptide 6 (“protective” peptide). Naive NOD mice were immunized 3 times I.D. with either 100 μg peptide 6 in CFA and IFA or PBS (control). Mice were monitored for the onset of diabetes by glucose test (appearance of hyperglycemia) and for anti-peptide 6 or […] antibodies by ELISA. Mice immunized with the peptide developed anti-peptide 6 as well as anti-HSP 65 antibodies as reflected by OD (1.52±0.07 and 1.43±0.13 respectively) in comparison to CFA immunized mice (0.05±0.Oland 0.01±0.01) and control mice (0.09±0.06 and 0.16±0.16).

DBA/1 mice = assay: Modulation of collagen arthritis in DBA/1 mice; assay type: in vivo, mouse; conditions: active vaccination
[3] = NOD mice immunized 3 times I.D. with 100 μg peptide 6 in CFA and IFA, ELISA

Sequence: GPKGRNVVLEKKWGAP [Peptide 6]
- Antibodies to Mycobacterial HSP 65 Peptides (rat immunoglobulins; strain BN-6w): + (0.16-0.45 = +)
- Antibodies to Mycobacterial HSP 65 Peptides (rat immunoglobulins; strain Lew-4m): + (0.16-0.45 = +)
- Antibodies to Mycobacterial HSP 65 Peptides (rat immunoglobulins; strain Lew-6w): − (<O. 15 = −)
- Antibodies to Mycobacterial HSP 65 Peptides (rat immunoglobulins; strain Lew-9m): + (0.16-0.45 = +)
- Antibodies to Mycobacterial HSP 65 Peptides (rat immunoglobulins; strain Lew-Post AA): +++ (>0.75 = +++)
- Anti HSP Antibodies in Immunized Lewis Rats, Antigen M5 (Lewis rats [1]; antigen M5): − (<O. 15 = −)
- Anti HSP Antibodies in Immunized Lewis Rats, Antigen MT-HSP 65 (Lewis rats [1]; antigen MT-HSP 65): ++ (0.46-0.75 = ++)
- Anti HSP Antibodies in Immunized Lewis Rats, Antigen 6 (Lewis rats [1]; antigen peptide 6): ++ (0.46-0.75 = ++)
- Anti HSP Antibodies in Immunized Lewis Rats, Antigen 7 (Lewis rats [1]; antigen peptide 7): − (<O. 15 = −)
- AA disease severity after pre-immunization (Lewis rats [2]): significant suppression of disease severity
- anti-HSP 65 antibodies (NOD mice; [3]): 1.43±0.13 OD
- anti-peptide 6 antibodies (NOD mice; [3]): 1.52±0.07 OD
- appearance of the diabetic symptoms (NOD mice; NOD mice, glucose test, FIG. 7): clearly delayed
- number of sick mice (NOD mice; NOD mice, peptide-6 vaccinated group): significantly lowered
- diabetes disease severity (NOD mice; NOD mice, FIG. 7): significantly reduced
- murine collagen arthritis (DBA/1 mice): suppressed significantly
